Source: patent publication US7393637B2, “Methods for detecting cancer and monitoring cancer progression” (University of Manitoba, priority 2003, dated 2008)

B1: 356delA BNIP3: truncated BNIP3, frame shift in the CD domain by deletion of A at nucleotide 356 (SEQ ID NO:3, protein SEQ ID NO:4) (protein, listed as Homo sapiens)
chain: MSQNGAPGMQEESLQGSWVELHFSNNGNGGSVPASVSIYNGDMEKILLDAQHESGRSSSKSSHCDSPPRSQTPQDTNRASETDTHSIGEKNSSQSEEDDIERRKEVESILKKNSDWIWVGQVGRKIFPPRSSSLNTRSARPPSA

How the values were obtained:
Format in all cases: cell-based, human
[1] = test system: glioblastoma cell lines U87 and U251; test: Cell death after transfection of glioblastoma cell lines (chromatin condensation); details: U87 and U251 cells transfected, normoxia
Procedure: (§1) Human glioblastoma cell lines U251 and U87 (obtained from Dr. V. W. Yong, University of Calgary and Dr. C. Hao, University of Alberta, respectively) were cultured in Dulbecco's modified essential medium (DMEM), supplemented with 10% fetal bovine serum, 2 mM L-glutamine, 1 mM MEM sodium pyruvate, 0.3% glucose and 100 units/mI penicillin/streptomycin. The cell lines were grown in a humidified incubator in the presence of 5% CO2 at 37° C. Cells were maintained under hypoxic conditions (less than 1% oxygen) at 37° C. within a hypoxic chamber (Forma Scientific) filled with 5% CO2 balanced with N2. Transfection experiments were carried out with the U87 and U251 cell lines. The cells were plated 48 hours prior to transfection to achieve approximately 40% confluence. The U87 cell line was transfected using Geneporter™ transfection reagent (GTS) and the U251 cell line using Effectene™ transfection reagent (Qiagen) as per the manufacturer's instructions.
After transfection of U87 and U251 cell lines with 2 μg of pCDNA3, pCDNA3-BNIP3, pCDNA3-BNIP3ΔTM, or pCDNA3-356delA BNIP3, the cells were incubated for 24 and 48 hours, then trypsinized and centrifuged and then resuspended in 2 ml of media. A 200 μl aliquot was placed in a ThermoShandon cytospin at 1000 RPM for 5 minutes with medium-low acceleration. The slides obtained from the cytospin were immediately fixed with 3.7% formaldelyde in 1×PBS at RT for one hour. Following three washes with 1' PBS (0.1% NP40), slides were incubated with primary BNIP3 antibody (1:700 dilution in […], 1×PBS, 0.1% NP40) for 1 hour at RT. The slides were then washed three times in PBS (0.1% NP40) and incubated with goat anti-rabbit fluorescein isothiocyanate (FITC)-conjugated secondary antibody (Sigma) for 1 hour. […] 200 or more cells were counted per sample to assess DNA condensation. Fluorescence was visualized and captured using an Olympus BX51 fluorescent microscope with a Photometrics Cool Snap CF camera and an Olympus IX70 inverted confocal laser microscope using Fluoview 2.0 software.

U251 cells [2] = test: Determination of mitochondrial membrane potential (TMRM staining) in transfected U251 cells; details: U251 cells co-transfected with GFP
Procedure: U251 cells were grown in chamber slides and were co-transfected with pEGFP N1 (Clontech) and pCDNA3, pCDNA3-BNIP3, pCDNA3-BNIP3ΔTM, and pCDNA3-356delA BNIP3 using Geneporter™ transfection reagent (GTS) as per the manufacturer's instructions. After 16 h of incubation, the slides were washed twice with 1×Hepes-buffered saline solution (HBSS) and tetramethylrohdamine (TMRM; Molecular Probes) was added to the slides at […] final concentration and incubated in the dark at RT for 10 min. The slides were then viewed on an Olympus IX70 inverted confocal laser microscope using Fluoview 2.0 software.

U87 cells = test: Antisense experiment: hypoxia-induced cell death in U87 cells (acridine orange staining); details: hypoxia 72 hours
Procedure: U251 and U87 cells were plated on 100 mm plates and grown to approximately 80% confluence, then incubated in hypoxic conditions for a time course of 0, 24, 48, 72 and 96 hours. Following incubation under hypoxia, the cells were trypsinized from the plates and centrifuged to collect a cell pellet. Cells were resuspended in 100 μl of media and 4 μl of acridine orange (100 μg/ml) and ethidium bromide (100 μg/ml) were added. A 10 μl aliquot was removed, placed on a microscope slide and a coverslip was applied. Using a fluorescein filter, the percentage of dead cells was determined by counting the number of DNA condensation nuclei. At least 200 cells were counted per sample as previously described (5).
Antisense oligonucleotide (5′-[…]-3′ (SEQ ID NO:13)) (Sigma Genesys, Oakville, ON) and sense oligonucleotide (5′-[…]-3′ (SEQ ID NO:14)) were complimentary to bases −1 to +19 of the human Bnip3 gene. Random sequence oligonucleotide (5′-GCAGTCAGCGACGTCGMGC-3′ (SEQ ID NO:15)) contained the same bases in a scrambled sequence. Oligonucleotides were phosphorothioate-modified to prevent degradation. […] Cell death was determined via acridine orange staining or cells were lysed and protein extracts were analyzed for BNIP3 expression as described above.

BNIP3 = test: Antisense experiment: BNIP3 expression in U87 cells under hypoxia (Western blot); details: hypoxia 72 hrs
Procedure: U251 cells were lysed for total protein or nuclear proteins as previously published (5). The lysates ([…]) were separated by SDS-PAGE and transferred to nitrocellulose membranes. Membranes were blocked in 5% skim milk and western blotted with monoclonal antibodies against BNIP3 (1:1000) (5), pro-caspase 8 antibodies (1:1000, Upstate Biotech.), HDAC1 antibodies (1:1000, Upstate Biotech),) or β-actin (1:50, Sigma). The western blots were visualized with chemiluminescence (NEN-Dupont).
Antisense oligonucleotide (5′-[…]-3′ (SEQ ID NO:13)) (Sigma Genesys, Oakville, ON) and sense oligonucleotide (5′-[…]-3′ (SEQ ID NO:14)) were complimentary to bases −1 to +19 of the human Bnip3 gene. Random sequence oligonucleotide (5′-GCAGTCAGCGACGTCGMGC-3′ (SEQ ID NO:15)) contained the same bases in a scrambled sequence. Oligonucleotides were phosphorothioate-modified to prevent degradation. Oligonucleotides were diluted in Opti-MEM (Gibco BRL), mixed with oligofectamine (Invitrogen) and incubated with U87 cells for 4 hours then hypoxic media was added and cells were further incubated under hypoxia for 72 hours. Cell death was determined via acridine orange staining or cells were lysed and protein extracts were analyzed for BNIP3 expression as described above.

U251 cells [3] = test: Hypoxia-induced cell death in transfected U251 cells (β-galactosidase viability assay)
Procedure: as §1
U87 and U251 cells were co-transfected in 100 mm culture plates with 2 μg of pcDNA3, pcDNA3-BNIP3, pcDNA3-BNIP3ΔTM, pcDNA3-356delA BNIP3 plasmid DNA and 0.5 μg of β-galactosidase reporter plasmid DNA. […] The percentage of dead cells was calculated by assessing the number of rounded, condensed, blue-staining cells in the total population of flat, blue-staining cells. At least 200 cells were counted for each experiment.

Row | Molecule | induction of cell death [1] | TMRM staining (mitochondrial membrane potential, Δψm) (U251 cells [2]) | hypoxia-induced cell death (U87 cells) | BNIP3 expression (BNIP3) | cell death (U251 cells [3]; U251 cells transfected with cDNA, hypoxic conditions 72 hours, vector alone 40%, normoxia 10%) | reduction of cell death versus vector alone (U251 cells [3]; U251 cells, hypoxic conditions)
1 | 235—236insA BNIP3: truncated BNIP3, frame shift in the PEST domain by insertion of A at nucleotide 236 (SEQ ID NO:5, protein SEQ ID NO:6) | failed to induce cell death |  |  |  |  | 
2 | wt BNIP3: wild-type Bcl-2 Nineteen Kilodalton Interacting Protein 3 (SEQ ID NO:2), expressed from transfected cDNA | inducing cell death | TMRM staining decreased |  |  |  | 
3 | 5′-GCGCTCCGTTCTGCGACATG-3′ (SEQ ID NO:13) (listed as DNA, chemistry not given here) [antisense oligonucleotides against BNIP3, antisense oligonucleotide to bases −1 to +19 of the human Bnip3 gene] |  |  | inhibited hypoxia-induced cell death | effectively blocks BNIP3 expression |  | 
4 | B1 | fails to induce cell death | failed to change TMRM fluorescence |  |  | 20% | 50%
